This passage reports IC50 results from US20200331925A1, “HETEROCYCLIC COMPOUNDS FOR THE TREATMENT OF ABNORMAL CELLULAR PROLIFERATION” (G1 Therapeutics, Inc., priority 2018, published 2020).

Holding throughout (type): biochemical
The target of one experiment is CDK1/Cyclin B1 (Homo sapiens, UniProt P06493). The experiment in a line: CDK1/Cyclin B1 kinase assay (Nanosyn, Caliper microfluidic). Conditions: 12-point dose-response, ATP at Km (40 μM), 3 hr. As for the experimental part:
(§1) Selected compounds disclosed herein were tested in kinase assays by Nanosyn (Santa Clara, Calif.) to determine their inhibitory effect on selected CDKs. The assays were performed using microfluidic kinase detection technology (Caliper Assay Platform). The compounds were tested in 12-point dose-response format in singlicate at Kmfor ATP. Phosphoacceptor substrate peptide concentration used was 1 μM for all assays and Staurosporine was used as the reference compound for all assays. Specifics of each assay are as described below: CDK1/Cyclin B1: Enzyme concentration: 0.08 nM; ATP concentration: 40 μM; Incubation time: 3 hr.

For the next experiment, the target named is CDK2/Cyclin A (Homo sapiens, UniProt P24941). The experiment in a line: CDK2/Cyclin A kinase assay (Nanosyn, Caliper microfluidic). The note with it: 12-point dose-response, ATP at Km (50 μM), 3 hr. As for the experimental part:
as §1, with “CDK2/Cyclin A:” for “CDK1/Cyclin B1:”, “0.1” for “0.08”, “50” for “40”

Another experiment has as its target CDK2/Cyclin E (Homo sapiens, UniProt P24941). Put plainly: CDK2/Cyclin E kinase assay (Nanosyn, Caliper microfluidic). Conditions: 12-point dose-response, ATP at Km (100 μM), 3 hr. How it is done:
as §1, with “CDK2/Cyclin E:” for “CDK1/Cyclin B1:”, “0.15” for “0.08”, “100” for “40”

In the next experiment the target is CDK3/Cyclin E (Homo sapiens, UniProt Q00526). The experiment in a line: CDK3/Cyclin E kinase assay (Nanosyn, Caliper microfluidic). The note with it: 12-point dose-response, ATP at Km (400 μM), 3 hr. How it is done:
as §1, with “CDK3/Cyclin E:” for “CDK1/Cyclin B1:”, “1” for “0.08”, “400” for “40”

For another experiment, the target named is CDK4/Cyclin D1 (Homo sapiens, UniProt P11802). The experiment in a line: CDK4/Cyclin D1 kinase assay (Nanosyn, Caliper microfluidic). Conditions: 12-point dose-response, ATP at Km (200 μM), 3 hr; Table 4. As for the experimental part:
as §1, with “CDK4/Cyclin D1:” for “CDK1/Cyclin B1:”, “1” for “0.08”, “200” for “40”

A further experiment addresses CDK5/p35 (Homo sapiens, UniProt Q00535). The experiment in a line: CDK5/p35 kinase assay (Nanosyn, Caliper microfluidic). The note with it: 12-point dose-response, ATP at Km (20 μM), 3 hr. How it is done: as §1, with “CDK5/p35:” for “CDK1/Cyclin B1:”, “0.05” for “0.08”, “20” for “40”
Another experiment concerns the target CDK5/p25 (Homo sapiens, UniProt Q00535). The experiment in a line: CDK5/p25 kinase assay (Nanosyn, Caliper microfluidic). Conditions: 12-point dose-response, ATP at Km (20 μM), 3 hr. As for the experimental part:
as §1, with “CDK5/p25:” for “CDK1/Cyclin B1:”, “0.1” for “0.08”, “20” for “40”

A further experiment has as its target CDK6/Cyclin D3 (Homo sapiens, UniProt Q00534). Put plainly: CDK6/Cyclin D3 kinase assay (Nanosyn, Caliper microfluidic). The note with it: 12-point dose-response, ATP at Km (300 μM), 3 hr. How it is done:
as §1, with “CDK6/Cyclin D3:” for “CDK1/Cyclin B1:”, “2” for “0.08”, “300” for “40”

The target of the next experiment is CDK7/Cyclin H (Homo sapiens, UniProt P50613). The experiment in a line: CDK7/Cyclin H kinase assay (Nanosyn, Caliper microfluidic). Conditions: 12-point dose-response, ATP at Km (50 μM), 17 hr. How it is done:
as §1, with “CDK7/Cyclin H:” for “CDK1/Cyclin B1:”, “10” for “0.08”, “50” for “40”, “17” for “3”

The next experiment deals with CDK9/Cyclin T (Homo sapiens, UniProt P50750). Put plainly: CDK9/Cyclin T kinase assay (Nanosyn, Caliper microfluidic). Conditions: 12-point dose-response, ATP at Km (10 μM), 17 hr; Table 5. As for the experimental part: as §1, with “[…]:” for “CDK1/Cyclin B1:”, “5” for “0.08”, “10” for “40”, “17” for “3”

Each structure is given as a SMILES string. Bounds are passed on as bounds.

Sequence of CDK1/Cyclin B1 (P06493 whole entry): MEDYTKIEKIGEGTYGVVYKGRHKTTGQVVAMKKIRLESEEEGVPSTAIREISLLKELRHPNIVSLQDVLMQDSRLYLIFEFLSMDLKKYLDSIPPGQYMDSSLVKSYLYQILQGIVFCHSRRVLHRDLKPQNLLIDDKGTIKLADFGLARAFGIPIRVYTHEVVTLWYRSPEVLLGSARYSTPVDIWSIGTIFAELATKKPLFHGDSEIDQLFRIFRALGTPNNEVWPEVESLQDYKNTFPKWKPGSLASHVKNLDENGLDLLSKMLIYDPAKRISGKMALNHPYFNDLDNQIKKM
Sequence of CDK1/Cyclin B1 (P14635 whole entry partner): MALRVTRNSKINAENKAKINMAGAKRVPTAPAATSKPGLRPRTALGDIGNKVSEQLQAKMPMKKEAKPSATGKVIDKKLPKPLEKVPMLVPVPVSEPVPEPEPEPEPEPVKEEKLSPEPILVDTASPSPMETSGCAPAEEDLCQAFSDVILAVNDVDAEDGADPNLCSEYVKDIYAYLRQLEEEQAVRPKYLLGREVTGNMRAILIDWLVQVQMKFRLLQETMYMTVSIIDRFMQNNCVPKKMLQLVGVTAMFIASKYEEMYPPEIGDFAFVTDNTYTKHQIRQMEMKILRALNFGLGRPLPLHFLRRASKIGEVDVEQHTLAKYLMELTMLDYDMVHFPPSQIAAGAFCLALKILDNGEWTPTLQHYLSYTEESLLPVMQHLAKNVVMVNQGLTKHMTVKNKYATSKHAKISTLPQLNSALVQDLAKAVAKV
Sequence of CDK4/Cyclin D1 (P11802 whole entry): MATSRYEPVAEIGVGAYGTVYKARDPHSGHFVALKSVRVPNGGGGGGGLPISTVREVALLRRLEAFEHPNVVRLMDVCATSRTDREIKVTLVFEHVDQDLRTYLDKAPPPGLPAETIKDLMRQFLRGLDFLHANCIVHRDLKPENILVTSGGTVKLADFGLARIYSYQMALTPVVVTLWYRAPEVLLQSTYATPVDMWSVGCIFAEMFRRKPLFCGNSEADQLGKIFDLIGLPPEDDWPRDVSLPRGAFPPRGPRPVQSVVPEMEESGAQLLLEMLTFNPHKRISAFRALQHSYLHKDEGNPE
Sequence of CDK4/Cyclin D1 (P24385 whole entry partner): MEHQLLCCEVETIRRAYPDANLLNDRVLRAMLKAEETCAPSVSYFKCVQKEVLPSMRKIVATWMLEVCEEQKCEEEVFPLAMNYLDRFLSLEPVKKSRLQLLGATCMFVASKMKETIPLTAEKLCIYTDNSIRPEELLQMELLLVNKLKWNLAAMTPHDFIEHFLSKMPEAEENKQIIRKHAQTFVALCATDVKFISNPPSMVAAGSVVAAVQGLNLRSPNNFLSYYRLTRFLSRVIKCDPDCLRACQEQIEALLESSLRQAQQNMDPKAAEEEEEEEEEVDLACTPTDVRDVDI
Sequence of CDK7/Cyclin H (P50613 whole entry): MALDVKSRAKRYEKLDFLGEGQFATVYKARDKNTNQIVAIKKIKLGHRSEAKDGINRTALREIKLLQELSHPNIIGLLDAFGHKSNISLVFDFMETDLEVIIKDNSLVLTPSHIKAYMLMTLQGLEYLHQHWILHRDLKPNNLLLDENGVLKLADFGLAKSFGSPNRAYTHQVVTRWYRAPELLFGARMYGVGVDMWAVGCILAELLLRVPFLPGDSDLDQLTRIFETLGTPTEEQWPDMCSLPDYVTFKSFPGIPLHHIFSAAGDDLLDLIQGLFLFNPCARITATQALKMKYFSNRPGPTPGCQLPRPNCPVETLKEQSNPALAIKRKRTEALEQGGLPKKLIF
Sequence of CDK7/Cyclin H (P51946 whole entry partner): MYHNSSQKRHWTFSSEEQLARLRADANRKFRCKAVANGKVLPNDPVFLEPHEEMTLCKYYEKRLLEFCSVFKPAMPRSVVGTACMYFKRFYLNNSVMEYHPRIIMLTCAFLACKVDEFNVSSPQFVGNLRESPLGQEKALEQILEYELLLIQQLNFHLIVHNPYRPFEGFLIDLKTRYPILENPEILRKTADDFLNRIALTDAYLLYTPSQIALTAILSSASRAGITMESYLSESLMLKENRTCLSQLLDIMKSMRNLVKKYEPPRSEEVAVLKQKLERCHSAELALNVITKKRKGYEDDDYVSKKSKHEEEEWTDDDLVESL
Sequence of CDK7/Cyclin H (P51948 whole entry partner): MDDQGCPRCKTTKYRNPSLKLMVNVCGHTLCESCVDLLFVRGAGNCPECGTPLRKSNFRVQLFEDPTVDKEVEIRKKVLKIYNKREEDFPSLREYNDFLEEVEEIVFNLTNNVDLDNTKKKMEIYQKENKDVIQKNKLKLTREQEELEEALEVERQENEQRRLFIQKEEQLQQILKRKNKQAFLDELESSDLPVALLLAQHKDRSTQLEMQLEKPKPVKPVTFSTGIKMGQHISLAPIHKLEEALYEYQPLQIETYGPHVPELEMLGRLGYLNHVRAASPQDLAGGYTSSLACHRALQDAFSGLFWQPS
Sequence of CDK6/Cyclin D3 (Q00534 whole entry): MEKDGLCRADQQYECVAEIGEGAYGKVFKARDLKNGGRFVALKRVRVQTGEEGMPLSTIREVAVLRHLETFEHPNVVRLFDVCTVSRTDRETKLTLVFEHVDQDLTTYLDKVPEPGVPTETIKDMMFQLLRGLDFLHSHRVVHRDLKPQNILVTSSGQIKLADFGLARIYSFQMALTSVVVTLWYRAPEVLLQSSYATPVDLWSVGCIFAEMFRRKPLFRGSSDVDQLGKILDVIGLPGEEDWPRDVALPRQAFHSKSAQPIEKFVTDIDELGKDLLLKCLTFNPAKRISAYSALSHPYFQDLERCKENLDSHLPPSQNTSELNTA
Sequence of CDK6/Cyclin D3 (P30281 whole entry partner): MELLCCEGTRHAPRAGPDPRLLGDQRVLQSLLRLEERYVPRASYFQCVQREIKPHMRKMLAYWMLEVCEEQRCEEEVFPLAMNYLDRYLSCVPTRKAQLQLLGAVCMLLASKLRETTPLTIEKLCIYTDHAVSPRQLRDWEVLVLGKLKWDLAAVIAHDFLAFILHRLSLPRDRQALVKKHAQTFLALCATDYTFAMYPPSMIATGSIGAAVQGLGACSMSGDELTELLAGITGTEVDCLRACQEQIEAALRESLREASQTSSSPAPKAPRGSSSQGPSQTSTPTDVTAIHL
Sequence of CDK5/p25 (Q00535 whole entry): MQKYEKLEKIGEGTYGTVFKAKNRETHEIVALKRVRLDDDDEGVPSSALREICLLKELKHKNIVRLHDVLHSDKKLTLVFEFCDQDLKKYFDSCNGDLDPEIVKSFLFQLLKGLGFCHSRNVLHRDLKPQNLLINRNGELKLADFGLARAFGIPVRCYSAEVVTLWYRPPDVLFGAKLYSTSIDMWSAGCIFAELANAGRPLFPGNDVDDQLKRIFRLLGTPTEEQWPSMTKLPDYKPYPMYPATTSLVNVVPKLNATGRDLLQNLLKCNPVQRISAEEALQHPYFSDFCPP
Sequence of CDK5/p25 (Q15078 99-307 partner limits assumed): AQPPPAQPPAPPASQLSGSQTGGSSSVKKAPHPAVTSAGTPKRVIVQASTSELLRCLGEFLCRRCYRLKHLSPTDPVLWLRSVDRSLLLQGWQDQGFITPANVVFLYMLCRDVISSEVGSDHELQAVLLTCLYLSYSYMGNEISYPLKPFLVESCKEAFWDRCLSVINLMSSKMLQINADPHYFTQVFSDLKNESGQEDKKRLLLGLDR
Sequence of CDK5/p35 (Q00535 whole entry): as the sequence (Q00535 whole entry) above
Sequence of CDK5/p35 (Q15078 whole entry partner): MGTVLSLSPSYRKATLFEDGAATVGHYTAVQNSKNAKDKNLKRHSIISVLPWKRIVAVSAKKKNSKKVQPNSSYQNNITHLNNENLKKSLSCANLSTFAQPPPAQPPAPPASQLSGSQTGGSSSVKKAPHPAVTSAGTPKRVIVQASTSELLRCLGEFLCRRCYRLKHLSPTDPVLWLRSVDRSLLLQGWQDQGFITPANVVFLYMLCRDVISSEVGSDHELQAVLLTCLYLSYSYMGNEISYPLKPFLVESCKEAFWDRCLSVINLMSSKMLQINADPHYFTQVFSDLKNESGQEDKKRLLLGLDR

The term IC50 denotes the concentration that inhibits the measured activity by half. Low values mean greater potency, high ones weaker potency. As for `O=C1NCC2(CCCCC2)n2c1cc1cnc(N[C@H]3C[C@@H](O)CNC3=O)nc12` [Compound 7, 2′-(((3S,5R)-5-hydroxy-2-oxopiperidin-3-yl)amino)-7′,8′-dihydro-6′H-spiro[cyclohexane-1,9′-pyrazino[1′,2′:1,5]pyrrolo[2,3-d]pyrimidin]-6′-one], the IC50 is over 100 µM at CDK1/Cyclin B1; 65 µM at CDK2/Cyclin A; over 100 µM against CDK2/Cyclin E; over 100 µM on CDK3/Cyclin E; 0.82 µM against CDK4/Cyclin D1; over 100 µM at CDK5/p35. The half-inhibitory concentration (IC50) at CDK5/p25 was over 100 µM; against CDK6/Cyclin D3 it was 5.6 µM; on CDK7/Cyclin H, over 100 µM; against CDK9/Cyclin T it was 3.4 µM.

Take `O=C1NCC2(CCCCC2)n2c1cc1cnc(N[C@@H]3C[C@@H](O)CNC3=O)nc12` [Compound 8, 2′-(((3R,5R)-5-hydroxy-2-oxopiperidin-3-yl)amino)-7′,8′-dihydro-6′H-spiro[cyclohexane-1,9′-pyrazino[1′,2′:1,5]pyrrolo[2,3-d]pyrimidin]-6′-one]: the IC50 against CDK1/Cyclin B1 amounted to 27 µM; against CDK2/Cyclin A, 11 µM; against CDK2/Cyclin E, 24 µM; on CDK3/Cyclin E it was 18 µM; at CDK4/Cyclin D1 it was 0.1 µM; at CDK5/p35 it was 26 µM. For the same compound, the IC50 came to 25 µM against CDK5/p25, 0.53 µM on CDK6/Cyclin D3, 7.2 µM at CDK7/Cyclin H and 0.44 µM against CDK9/Cyclin T.

On to `O=C1NCC2(CCCCC2)n2c1cc1cnc(N[C@@H]3CCCN[C@@H]3c3ccccc3)nc12` [Compound 9, 2′-(((2R,3R)-2-phenylpiperidin-3-yl)amino)-7′,8′-dihydro-6′H-spiro[cyclohexane-1,9′-pyrazino[1′,2′:1,5]pyrrolo[2,3-d]pyrimidin]-6'-one], for which the IC50 is 82 µM against CDK1/Cyclin B1; 71 µM against CDK2/Cyclin A; over 100 µM against CDK2/Cyclin E; over 100 µM against CDK3/Cyclin E; 0.12 µM on CDK4/Cyclin D1; over 100 µM on CDK5/p35. Further, the IC50 was over 100 µM against CDK5/p25, 12 µM on CDK6/Cyclin D3, 20 µM on CDK7/Cyclin H and 1.6 µM on CDK9/Cyclin T.

For `O=C1NCC2(CCCCC2)n2c1cc1cnc(N[C@H]3CCCN[C@@H]3c3ccccc3)nc12` [Compound 10, 2′-(((2R,3S)-2-phenylpiperidin-3-yl)amino)-7′,8′-dihydro-6′H-spiro[cyclohexane-1,9′-pyrazino[1′,2′:1,5]pyrrolo[2,3-d]pyrimidin]-6′-one], the IC50 on CDK1/Cyclin B1 amounted to 8.8 µM; against CDK2/Cyclin A, 3.6 µM; on CDK2/Cyclin E, 5.7 µM; at CDK3/Cyclin E, 16 µM; on CDK4/Cyclin D1, 0.036 µM; against CDK5/p35, 9.7 µM. The IC50 was determined as 11 µM on CDK5/p25, 1.2 µM against CDK6/Cyclin D3, 1.8 µM on CDK7/Cyclin H and 0.08 µM at CDK9/Cyclin T.

On to `O=C1NCC2(CCCCC2)n2c1cc1cnc(NC(=O)[C@@H]3CCCNC3)nc12` [Compound 11, (R)-N-(6′-oxo-7′,8′-dihydro-6′H-spiro[cyclohexane-1,9′-pyrazino[1′,2′:1,5]pyrrolo[2,3-d]pyrimidin]-2′-yl)piperidine-3-carboxamide], for which the IC50 is 4.4 µM at CDK1/Cyclin B1; 3.1 µM against CDK2/Cyclin A; 13 µM against CDK2/Cyclin E; 7.2 µM at CDK3/Cyclin E; 2.9 µM at CDK4/Cyclin D1; 30 µM on CDK5/p35. Besides, the IC50 on CDK5/p25 came to 35 µM; on CDK6/Cyclin D3 it was 28 µM; on CDK7/Cyclin H, 13 µM; against CDK9/Cyclin T, 0.0055 µM.

Regarding `O=C1NCC2(CCCCC2)n2c1cc1cnc(N[C@H]3CC[C@H](NC4CCOCC4)CC3)nc12` [Compound 16, 2′-(((1r,4r)-4-((tetrahydro-2H-pyran-4-yl)amino)cyclohexyl)amino)-7′,8′-dihydro-6′H-spiro[cyclohexane-1,9′-pyrazino[1′,2′:1,5]pyrrolo[2,3-d]pyrimidin]-6′-one], the IC50 stood at 0.091 µM against CDK1/Cyclin B1; 0.11 µM at CDK2/Cyclin A; 0.19 µM against CDK2/Cyclin E; 0.24 µM against CDK3/Cyclin E; 0.013 µM against CDK4/Cyclin D1; 0.47 µM on CDK5/p35. Also, the IC50 on CDK5/p25 was found to be 0.48 µM; against CDK6/Cyclin D3, 0.072 µM; against CDK7/Cyclin H, 0.17 µM; against CDK9/Cyclin T, 0.0027 µM.

For the compound `O=C1NCC2(CCCCC2)n2c1cc1cnc(N[C@H]3CC[C@H](Nc4ncc(F)cn4)CC3)nc12` [Compound 19, 2′-(((1,4-trans)-4-((5-fluoropyrimidin-2-yl)amino)cyclohexyl)-12-azaneyl)-7′,8′-dihydro-6′H-spiro[cyclohexane-1,9′-pyrazino[1′,2′:1,5]pyrrolo[2,3-d]pyrimidin]-6′-one], the IC50 at CDK1/Cyclin B1 amounted to 0.096 µM; against CDK2/Cyclin A it was 0.071 µM; at CDK2/Cyclin E, 0.11 µM; against CDK3/Cyclin E, 0.22 µM; against CDK4/Cyclin D1, 0.0086 µM; against CDK5/p35, 0.12 µM. The IC50 on CDK5/p25 stood at 0.12 µM; on CDK6/Cyclin D3, 0.075 µM; against CDK7/Cyclin H it was 0.74 µM; against CDK9/Cyclin T, 0.0021 µM.
